Source: paper PMC3382171 (PLoS ONE, 2012)

Assays:
Assay in all cases: biochemical
Set-up in all cases: Invitrogen SelectScreen kinase panel, percent inhibition at 1 uM, ATP at Km
Conditions in all cases: read-out: Invitrogen KSS %Inh at 1 µM
AKT2 (PKB beta) = AKT2 (PKB beta) (Homo sapiens, UniProt P31751)
Method in brief: (§1)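 Commercial kinase panel screens run with ATP at the Km for each kinase. Compounds tested at 1 µM final concentration; values are % inhibition of phosphorylation relative to control.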

ALK = ALK (Homo sapiens, UniProt Q9UM73)
Chain of ALK (Q9UM73 whole entry): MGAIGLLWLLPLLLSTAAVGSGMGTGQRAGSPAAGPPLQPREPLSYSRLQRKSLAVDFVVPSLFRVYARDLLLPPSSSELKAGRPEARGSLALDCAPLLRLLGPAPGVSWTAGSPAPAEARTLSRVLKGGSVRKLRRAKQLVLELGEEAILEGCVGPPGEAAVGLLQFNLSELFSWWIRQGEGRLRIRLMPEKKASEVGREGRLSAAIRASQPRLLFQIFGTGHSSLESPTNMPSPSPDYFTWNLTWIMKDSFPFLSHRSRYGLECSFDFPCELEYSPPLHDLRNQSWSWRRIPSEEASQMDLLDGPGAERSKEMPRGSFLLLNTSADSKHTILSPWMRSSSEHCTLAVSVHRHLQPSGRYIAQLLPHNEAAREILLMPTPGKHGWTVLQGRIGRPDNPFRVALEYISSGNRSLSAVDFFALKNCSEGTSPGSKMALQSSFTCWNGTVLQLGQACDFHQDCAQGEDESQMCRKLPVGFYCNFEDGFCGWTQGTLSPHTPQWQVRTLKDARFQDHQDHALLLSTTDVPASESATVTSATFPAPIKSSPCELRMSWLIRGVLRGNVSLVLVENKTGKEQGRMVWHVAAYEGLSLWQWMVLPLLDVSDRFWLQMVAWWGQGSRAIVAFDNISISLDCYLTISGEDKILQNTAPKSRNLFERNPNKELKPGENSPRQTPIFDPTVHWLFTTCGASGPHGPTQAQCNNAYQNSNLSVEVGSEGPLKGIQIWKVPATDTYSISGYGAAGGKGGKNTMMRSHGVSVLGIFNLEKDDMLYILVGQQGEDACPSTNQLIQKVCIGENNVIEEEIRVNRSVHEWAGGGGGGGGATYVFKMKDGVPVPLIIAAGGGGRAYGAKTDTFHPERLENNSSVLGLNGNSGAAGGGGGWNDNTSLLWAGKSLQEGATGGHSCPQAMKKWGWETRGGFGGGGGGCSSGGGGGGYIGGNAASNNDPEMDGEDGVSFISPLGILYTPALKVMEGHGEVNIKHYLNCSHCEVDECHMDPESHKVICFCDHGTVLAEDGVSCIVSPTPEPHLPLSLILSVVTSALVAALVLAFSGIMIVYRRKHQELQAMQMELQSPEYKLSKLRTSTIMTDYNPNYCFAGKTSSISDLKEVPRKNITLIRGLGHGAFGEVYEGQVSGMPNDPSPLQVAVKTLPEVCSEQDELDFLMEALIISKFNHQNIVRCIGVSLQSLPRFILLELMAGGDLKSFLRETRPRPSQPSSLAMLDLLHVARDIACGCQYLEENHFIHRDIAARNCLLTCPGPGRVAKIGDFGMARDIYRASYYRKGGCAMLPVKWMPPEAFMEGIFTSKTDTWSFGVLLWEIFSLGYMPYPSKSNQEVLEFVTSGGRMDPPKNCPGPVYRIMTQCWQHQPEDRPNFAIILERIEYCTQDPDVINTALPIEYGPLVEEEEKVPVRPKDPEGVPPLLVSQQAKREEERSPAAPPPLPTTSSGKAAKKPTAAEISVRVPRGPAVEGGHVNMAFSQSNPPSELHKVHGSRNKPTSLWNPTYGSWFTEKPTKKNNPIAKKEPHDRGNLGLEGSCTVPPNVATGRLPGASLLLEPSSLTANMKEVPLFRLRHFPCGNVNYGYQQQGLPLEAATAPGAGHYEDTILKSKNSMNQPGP
Method in brief: as §1

AURKA (Aurora A) = AURKA (Aurora A) (Homo sapiens, UniProt O14965)
Method in brief: as §1

AXL = AXL (Homo sapiens, UniProt P30530)
Method in brief: as §1

BMX = BMX (Homo sapiens, UniProt P51813)
Method in brief: as §1

DAPK3 (ZIPK) = DAPK3 (ZIPK) (Homo sapiens, UniProt O43293)
Chain of DAPK3 (ZIPK) (O43293 whole entry): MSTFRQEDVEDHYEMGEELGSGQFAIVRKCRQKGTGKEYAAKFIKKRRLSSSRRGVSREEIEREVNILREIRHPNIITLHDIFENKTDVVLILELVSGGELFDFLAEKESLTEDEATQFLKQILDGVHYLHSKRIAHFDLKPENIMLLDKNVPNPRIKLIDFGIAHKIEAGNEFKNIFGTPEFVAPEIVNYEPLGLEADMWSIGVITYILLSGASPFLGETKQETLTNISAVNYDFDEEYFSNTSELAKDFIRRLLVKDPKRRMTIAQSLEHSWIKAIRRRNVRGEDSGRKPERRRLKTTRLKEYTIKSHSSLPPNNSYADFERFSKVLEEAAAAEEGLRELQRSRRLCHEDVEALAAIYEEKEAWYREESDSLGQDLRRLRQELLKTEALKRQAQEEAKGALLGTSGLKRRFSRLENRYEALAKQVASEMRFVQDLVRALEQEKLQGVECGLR
Method in brief: as §1

EGFR (ErbB1) L861Q = EGFR (ErbB1) L861Q (Homo sapiens, UniProt P00533, L861Q)
Chain of EGFR (ErbB1) L861Q (P00533 whole entry L861Q): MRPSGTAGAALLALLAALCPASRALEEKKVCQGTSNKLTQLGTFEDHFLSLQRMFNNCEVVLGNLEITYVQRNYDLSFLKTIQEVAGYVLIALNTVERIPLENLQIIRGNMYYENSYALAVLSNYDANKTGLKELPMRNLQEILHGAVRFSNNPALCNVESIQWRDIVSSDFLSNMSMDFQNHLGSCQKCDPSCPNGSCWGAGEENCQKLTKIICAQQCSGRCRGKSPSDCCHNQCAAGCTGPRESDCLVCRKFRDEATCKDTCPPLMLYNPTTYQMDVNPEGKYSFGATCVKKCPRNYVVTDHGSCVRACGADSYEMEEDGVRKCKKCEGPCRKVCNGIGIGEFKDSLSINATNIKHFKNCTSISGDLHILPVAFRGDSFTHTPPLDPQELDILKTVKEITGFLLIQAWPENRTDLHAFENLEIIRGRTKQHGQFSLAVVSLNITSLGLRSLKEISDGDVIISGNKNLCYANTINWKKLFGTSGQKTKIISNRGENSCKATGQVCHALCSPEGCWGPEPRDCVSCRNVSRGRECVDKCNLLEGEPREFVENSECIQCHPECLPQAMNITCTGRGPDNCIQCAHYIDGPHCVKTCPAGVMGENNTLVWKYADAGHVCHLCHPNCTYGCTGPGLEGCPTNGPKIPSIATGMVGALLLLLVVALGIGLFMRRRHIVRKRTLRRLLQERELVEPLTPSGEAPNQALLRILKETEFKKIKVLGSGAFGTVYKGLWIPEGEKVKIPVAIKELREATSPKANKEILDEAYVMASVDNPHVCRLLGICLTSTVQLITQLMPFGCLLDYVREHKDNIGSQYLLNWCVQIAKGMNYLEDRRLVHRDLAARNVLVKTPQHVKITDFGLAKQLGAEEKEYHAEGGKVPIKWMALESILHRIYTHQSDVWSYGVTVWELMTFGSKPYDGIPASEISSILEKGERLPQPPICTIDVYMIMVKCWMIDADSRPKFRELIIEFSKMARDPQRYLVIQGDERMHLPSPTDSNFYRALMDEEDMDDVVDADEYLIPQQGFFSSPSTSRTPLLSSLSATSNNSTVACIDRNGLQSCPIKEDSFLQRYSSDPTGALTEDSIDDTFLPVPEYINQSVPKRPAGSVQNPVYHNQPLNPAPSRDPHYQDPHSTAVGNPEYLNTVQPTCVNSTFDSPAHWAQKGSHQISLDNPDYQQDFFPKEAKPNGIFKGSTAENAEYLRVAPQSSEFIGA
Method in brief: as §1

EPHB4 = EPHB4 (Homo sapiens, UniProt P54760)
Method in brief: as §1

FER = FER (Homo sapiens, UniProt P16591)
Chain of FER (P16591 whole entry): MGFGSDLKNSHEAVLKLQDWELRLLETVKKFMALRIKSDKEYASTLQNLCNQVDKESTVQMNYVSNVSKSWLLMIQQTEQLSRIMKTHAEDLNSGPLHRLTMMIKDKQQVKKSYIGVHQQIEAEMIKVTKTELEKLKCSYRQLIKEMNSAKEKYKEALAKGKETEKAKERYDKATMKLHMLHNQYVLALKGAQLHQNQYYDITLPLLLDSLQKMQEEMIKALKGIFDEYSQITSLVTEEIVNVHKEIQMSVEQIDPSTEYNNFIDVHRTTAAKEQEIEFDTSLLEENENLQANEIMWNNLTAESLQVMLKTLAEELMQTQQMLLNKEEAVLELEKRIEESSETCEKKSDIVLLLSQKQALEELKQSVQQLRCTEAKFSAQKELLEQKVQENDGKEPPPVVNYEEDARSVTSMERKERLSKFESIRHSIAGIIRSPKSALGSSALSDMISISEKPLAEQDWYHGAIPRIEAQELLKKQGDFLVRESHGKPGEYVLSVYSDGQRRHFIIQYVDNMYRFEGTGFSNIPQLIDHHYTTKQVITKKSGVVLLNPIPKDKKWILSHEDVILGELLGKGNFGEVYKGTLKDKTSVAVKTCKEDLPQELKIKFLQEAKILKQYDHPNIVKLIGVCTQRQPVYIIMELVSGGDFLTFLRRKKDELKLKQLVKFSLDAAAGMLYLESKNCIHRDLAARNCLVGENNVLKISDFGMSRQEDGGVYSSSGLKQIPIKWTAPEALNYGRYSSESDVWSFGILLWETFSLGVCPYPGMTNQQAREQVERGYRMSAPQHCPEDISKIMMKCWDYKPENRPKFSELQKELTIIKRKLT
Method in brief: as §1

FES (FPS) = FES (FPS) (Homo sapiens, UniProt P07332)
Method in brief: as §1

FGR = FGR (Homo sapiens, UniProt P09769)
Method in brief: as §1

GSK3B (GSK3 beta) = GSK3B (GSK3 beta) (Homo sapiens, UniProt P49841)
Method in brief: as §1

IGF1R = IGF1R (Homo sapiens, UniProt P08069)
Method in brief: as §1

LYN A = target: T1, LYN A (Homo sapiens, UniProt P07948)
T1 construct: isoform A
Method in brief: as §1

MAPK12 (p38 gamma) = MAPK12 (p38 gamma) (Homo sapiens, UniProt P53778)
Method in brief: as §1

MAPKAPK2 = MAPKAPK2 (Homo sapiens, UniProt P49137)
Method in brief: as §1

MARK1 = MARK1 (Homo sapiens, UniProt Q9P0L2)
Chain of MARK1 (Q9P0L2 whole entry): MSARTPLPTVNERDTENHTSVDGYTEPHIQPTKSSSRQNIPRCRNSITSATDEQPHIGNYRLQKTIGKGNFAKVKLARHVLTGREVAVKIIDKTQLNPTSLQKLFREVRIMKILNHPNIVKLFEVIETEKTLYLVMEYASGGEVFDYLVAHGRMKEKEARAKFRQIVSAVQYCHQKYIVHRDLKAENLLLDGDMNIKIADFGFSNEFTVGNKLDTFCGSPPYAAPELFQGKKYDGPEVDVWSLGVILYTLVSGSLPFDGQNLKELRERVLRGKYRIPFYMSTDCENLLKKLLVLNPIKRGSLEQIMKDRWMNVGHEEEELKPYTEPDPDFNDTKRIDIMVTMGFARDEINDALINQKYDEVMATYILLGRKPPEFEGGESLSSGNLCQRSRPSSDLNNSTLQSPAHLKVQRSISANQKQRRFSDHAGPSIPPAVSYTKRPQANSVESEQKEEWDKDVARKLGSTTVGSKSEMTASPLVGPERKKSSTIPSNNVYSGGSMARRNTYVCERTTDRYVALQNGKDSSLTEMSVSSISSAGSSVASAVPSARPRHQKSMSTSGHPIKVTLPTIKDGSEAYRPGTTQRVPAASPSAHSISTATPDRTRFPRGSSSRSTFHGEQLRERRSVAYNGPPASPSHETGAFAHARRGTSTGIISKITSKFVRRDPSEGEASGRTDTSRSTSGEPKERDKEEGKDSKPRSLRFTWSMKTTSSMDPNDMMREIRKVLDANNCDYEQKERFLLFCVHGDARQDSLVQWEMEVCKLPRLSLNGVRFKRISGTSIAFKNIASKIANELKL
Method in brief: as §1

NEK7 = NEK7 (Homo sapiens, UniProt Q8TDX7)
Method in brief: as §1

PDK1 = target: T2, PDK1 (Homo sapiens, UniProt O15530)
T2 construct: gene PDPK1
Method in brief: as §1

PRKD1 (PKC mu) = PRKD1 (PKC mu) (Homo sapiens, UniProt Q15139)
Method in brief: as §1

ROS1 = ROS1 (Homo sapiens, UniProt P08922)
Method in brief: as §1

RPS6KA3 (RSK2) = RPS6KA3 (RSK2) (Homo sapiens, UniProt P51812)
Method in brief: as §1

## N#CCCNc1nccc(-c2cn(CC(F)F)nc2-c2cnc3[nH]ccc3c2)n1 [RAFi, PF-04880594]
AKT2 (PKB beta)
  inhibition at 1 µM: 6%
ALK
  inhibition at 1 µM: 23%
AURKA (Aurora A)
  inhibition at 1 µM: 15%
AXL
  inhibition at 1 µM: -1%
BMX
  inhibition at 1 µM: -3%
DAPK3 (ZIPK)
  inhibition at 1 µM: 5%
EGFR (ErbB1) L861Q
  inhibition at 1 µM: 5%
EPHB4
  inhibition at 1 µM: 2%
FER
  inhibition at 1 µM: -2%
FES (FPS)
  inhibition at 1 µM: -11%
FGR
  inhibition at 1 µM: 2%
GSK3B (GSK3 beta)
  inhibition at 1 µM: 23%
IGF1R
  inhibition at 1 µM: 9%
LYN A
  inhibition at 1 µM: 2%
MAPK12 (p38 gamma)
  inhibition at 1 µM: 2%
MAPKAPK2
  inhibition at 1 µM: 3%
MARK1
  inhibition at 1 µM: 2%
NEK7
  inhibition at 1 µM: 23%
PDK1
  inhibition at 1 µM: 13%
PRKD1 (PKC mu)
  inhibition at 1 µM: 37%
ROS1
  inhibition at 1 µM: 11%
RPS6KA3 (RSK2)
  inhibition at 1 µM: -9%
